pIC50: −log10 of the molar value. Values after ≈ are worked out from the molar mass of the structure shown. Read-outs that look alike come from different tables or passages of the source.
What was measured:
MTT cell viability assay = type: cell-based; settings: human, HaCaT cells (immortal keratinocytes), HaCaT normal cell line, read-out: Cytotoxic activity IC50 (converted)
Description: (§1) All the cell lines were purchased from the American Type Culture Collection (ATCC, Rockville, MD, USA) and cultured in strictly defined conditions according to the recommended ATCC protocol. The PC3 cells were cultured in RPMI 1640 (Roswell Park Memorial Institute, Biowest SAS, Nuaillé, France), while the MDA-MB-231 and HaCaT cells were maintained in DMEM (Dulbecco’s Modified Eagle’s Medium, Biowest SAS, Nuaillé, France) supplemented with 1% streptomycin and penicillin and in 10% heat-inactivated fetal bovine serum (FBS, Gibco BRL San Francisco, CA, USA) with 1% streptomycin and penicillin. The cells were incubated in a 37 °C/5% CO2 humidified incubator. They were cultured until 80–90% confluence was achieved. Then, they were harvested by treatment with 0.25% trypsin-0.02% EDTA (Gibco BRL, San Francisco, CA, USA) and used in the experiments. Untreated cells were used as a control. […] After 24 h of incubation, the culture medium was replaced with a fresh medium. […] Then, the medium was aspirated and formed formazan crystals were solubilized by adding isopropanol-DMSO mixture (1:1 vol). The intensity of the dissolved crystals was measured using a UVM 340 reader (ASYS Hitech GmbH, Eugendorf, Austria) at a wavelength of 570 nm. Cell viability was estimated by the percentage of MTT reduction in cells to which the tested compounds were added, compared to the control sample, where only the medium was added. The experiments were repeated three times. The IC50 was calculated using GraphPad Prism 9.0.0 (GraphPad Software).

PC3 = assay: MTT cell viability assay; type: cell-based, human; settings: for pIC50 / IC50: Homo sapiens, PC-3, PC3, MTT, read-out: Cytotoxic activity IC50; for pIC50: 72 h (table footnote); for IC50: same value in µg/mL
Description: as §1

MDA-MB-231 = assay: MTT cell viability assay; type: cell-based, human; settings: for pIC50 / IC50: Homo sapiens, MDA-MB-231, MTT, read-out: Cytotoxic activity IC50; for pIC50: 72 h (table footnote); for IC50: same value in µg/mL
Description: as §1

[1] = tested on: Micrococcus luteus ATCC 10240; assay: Broth microdilution MIC/MBC, antibacterial; type: cell-based; settings: ATCC10240
Description: (§2) The minimal inhibitory concentration (MIC) was determined with the microdilution technique using 96-well polystyrene microplates (Medlab, Poland), as indicated by the European Committee on Antimicrobial Susceptibility Testing (EUCAST) guidelines. In this process, stock solutions of each tested Schiff base dissolved in dimethylsulphoxide (DMSO, Stanlab, Poland) were used at a concentration of 50 mg/mL. Before in vitro antibacterial activity detection, the basic concentration of 1000 µg/mL of each compound was prepared with Mueller–Hinton broth medium (MHB, BioMaxima, Lublin, Poland). The experiment was prepared using Mueller–Hinton broth medium in 96-well microplates. A series of two-fold dilutions of the tested compounds in the concentration range from 0.49 to 1000 μg/mL was made in culture broth medium. Then, 2 μL of bacterial inoculum with a density of 0.5 McFarland standard was added to each well. Each well was filled with a total volume of 100 μL. Then, the microtiter plates were incubated for 18 ± 2 h at 35 °C. After the incubation, the results were spectrophotometrically determined in Biotek ELx800 (Biokom, Janki, Poland) at 600 nm (OD600). The lowest concentration of the tested compounds with the absence of bacterial growth was determined as an MIC. Three replicates for each strain and compound were performed.
(§3) After incubation, 5 μL of the broth media cultured with bacteria or fungi were removed from each well of the plates used in the MIC experiments. Next, they were culturd onto the surface of the MHA medium (BioMaxima, Lublin, Poland) plate for bacteria or MHA +2% glucose plate for yeasts. The inoculated plates were incubated in the conditions mentioned above. After incubation, a visual reading of MBC or MFC values was made. […] Three replicates for each strain and compound were performed.

[2] = tested on: Bacillus subtilis ATCC 6633; assay: Broth microdilution MIC/MBC, antibacterial; type: cell-based; settings: ATCC6633
Description: as §2, §3

[3] = tested on: Escherichia coli ATCC 25922; assay: Broth microdilution MIC/MBC, antibacterial; type: cell-based; settings: ATCC25922, Escherichia coli ATCC 25922
Description: as §2, §3

[4] = tested on: Klebsiella pneumoniae ATCC 13883; assay: Broth microdilution MIC/MBC, antibacterial; type: cell-based; settings: ATCC13883, Klebsiella pneumoniae ATCC 13883
Description: as §2, §3

[5] = tested on: Pseudomonas aeruginosa ATCC 27853; assay: Broth microdilution MIC/MBC, antibacterial; type: cell-based; settings: ATCC27853
Description: as §2, §3

[6] = tested on: Staphylococcus aureus ATCC 6538; assay: Broth microdilution MIC/MBC, antibacterial; type: cell-based; settings: ATCC6538
Description: as §2, §3

[7] = tested on: Staphylococcus epidermidis ATCC 12228; assay: Broth microdilution MIC/MBC, antibacterial; type: cell-based; settings: ATCC12228
Description: as §2, §3

Candida auris CDC B11903 = assay: Broth microdilution MIC/MFC, antifungal; type: cell-based; settings: Candidozyma auris, CDCB11903
Description: (§4) To determine the antifungal activity of the newly synthesized Schiff bases against the reference strains of Candida spp., the broth microdilution method was used according to the EUCAST [52] and Clinical and Laboratory Standards Institute (CLSI) guidelines with some modifications to the medium. Before in vitro antifungal activity detection, the basic concentration of 1000 µg/mL of each compound was prepared with Mueller–Hinton broth (BioMaxima, Lublin, Poland) supplemented with 2% glucose (MHB+2% glucose). […] The final concentrations of the Schiff bases ranged from […] to 1000 µg/mL. All the reference strains of Candida spp. used were first subcultured to the Mueller–Hinton agar medium (BioMaxima, Lublin, Poland) with 2% glucose (MHA +2% glucose) at 37 °C for 24 h. Next, 2 µL of appropriate fungal suspensions was added to each well containing 100 µL of MHB + 2% glucose and the various concentrations of the tested Schiff bases.
as §3

[8] = tested on: Candida lusitaniae ATCC 3449; assay: Broth microdilution MIC/MFC, antifungal; type: cell-based; settings: Clavispora lusitaniae, ATCC3449
Description: as §4, §3

[9] = tested on: Candida tropicalis ATCC 1369; assay: Broth microdilution MIC/MFC, antifungal; type: cell-based; settings: ATCC1369
Description: as §4, §3

[10] = tested on: Candida glabrata ATCC 90030; assay: Broth microdilution MIC/MFC, antifungal; type: cell-based; settings: Nakaseomyces glabratus, ATCC90030
Description: as §4, §3

[11] = tested on: Candida glabrata ATCC 15126; assay: Broth microdilution MIC/MFC, antifungal; type: cell-based; settings: Nakaseomyces glabratus, ATCC15126
Description: as §4, §3

[12] = tested on: Candida albicans ATCC 10231; assay: Broth microdilution MIC/MFC, antifungal; type: cell-based; settings: for MIC: ATCC10231
Description: as §4, §3

[13] = tested on: Candida krusei ATCC 14243; assay: Broth microdilution MIC/MFC, antifungal; type: cell-based; settings: Pichia kudriavzevii, ATCC14243
Description: as §4, §3

Compound	IC50 at 72 h (MTT cell viability assay; 72 h (table footnote))	pIC50 (PC3)	pIC50 (MDA-MB-231)	MIC [1]	MIC [2]	MIC [3]	MIC [5]	MIC [6]	MIC [7]	IC50 at 72 h (MTT cell viability assay; same value in µg/mL)	IC50 (PC3)	IC50 (MDA-MB-231)	melting point	MIC (Candida auris CDC B11903)	MIC [8]	MIC [9]	MIC [10]	MIC [11]	MIC [12]	MIC [13]	other results
COc1cccc2c1C(=O)c1c(O)c3c(c(O)c1C2=O)C[C@@](O)(C(=O)CO)C[C@@H]3O[C@H]1C[C@H](N)[C@H](O)[C@H](C)O1 [Doxorubicin, reference compound]	0.3 µM	6.52	6.08	–	–	–	–	–	–	–	–	–	–	–	–	–	–	–	–	–	SI (Selectivity Index) (PC3; IC50 normal cell line (HaCaT)/IC50 PC3): 1; SI (Selectivity Index) (MDA-MB-231; IC50 normal cell line (HaCaT)/IC50 MDA-MB-231): 0.36
Cc1ccc(C=Nn2c(-c3cccc(F)c3)n[nH]c2=S)cc1 [RO1, 5-(3-fluorophenyl)-4-[(4-methylbenzylidene)amino]-2,4-dihydro-3H-1,2,4-triazole-3-thione]	> 100 µM	< 4.00	< 4.00	> 1000 µg/mL	> 1000 µg/mL	> 1000 µg/mL	> 1000 µg/mL	> 1000 µg/mL	> 1000 µg/mL	> 31.2 µg/mL	> 31.2 µg/mL	> 31.2 µg/mL	227 to 230 °C	> 1000 µg/mL	> 1000 µg/mL	> 1000 µg/mL	> 1000 µg/mL	> 1000 µg/mL	250 µg/mL (≈ 800 µM)	> 1000 µg/mL	MIC [4]: > 1000 µg/mL; MFC ([12]; ATCC10231, read-out: MFC): > 1000 µg/mL
O=[N+]([O-])c1ccc(C=Nn2c(-c3cccc(F)c3)n[nH]c2=S)cc1 [RO3, 5-(3-fluorophenyl)-4-[(4-nitrobenzylidene)amino]-2,4-dihydro-3H-1,2,4-triazole-3-thione]	> 100 µM	< 4.00	< 4.00	> 1000 µg/mL	> 1000 µg/mL	> 1000 µg/mL	> 1000 µg/mL	> 1000 µg/mL	> 1000 µg/mL	> 34.3 µg/mL	> 34.3 µg/mL	> 34.3 µg/mL	230 to 231 °C	1000 µg/mL (≈ 2910 µM)	1000 µg/mL (≈ 2910 µM)	500 µg/mL (≈ 1460 µM)	> 1000 µg/mL	1000 µg/mL (≈ 2910 µM)	500 µg/mL (≈ 1460 µM)	1000 µg/mL (≈ 2910 µM)	MIC [4]: > 1000 µg/mL
COc1ccc(C=Nn2c(-c3cccc(F)c3)n[nH]c2=S)cc1 [RO4, 5-(3-fluorophenyl)-4-[(4-methoxybenzylidene)amino]-2,4-dihydro-3H-1,2,4-triazole-3-thione]	> 100 µM	< 4.00	< 4.00	125 µg/mL (≈ 381 µM)	1000 µg/mL (≈ 3050 µM)	1000 µg/mL (≈ 3050 µM)	> 1000 µg/mL	500 µg/mL (≈ 1520 µM)	500 µg/mL (≈ 1520 µM)	> 38.8 µg/mL	> 38.8 µg/mL	> 38.8 µg/mL	215 to 216 °C	1000 µg/mL (≈ 3050 µM)	1000 µg/mL (≈ 3050 µM)	1000 µg/mL (≈ 3050 µM)	> 1000 µg/mL	1000 µg/mL (≈ 3050 µM)	62.5 µg/mL (≈ 190 µM)	500 µg/mL (≈ 1520 µM)	MBC [1]: > 1000 µg/mL; MIC [4]: 1000 µg/mL (≈ 3050 µM); MBC [5]: > 1000 µg/mL; MBC [6]: > 1000 µg/mL; MBC [7]: > 1000 µg/mL; MFC [12]: >1000 µg/mL; MFC ([12]; ATCC10231, read-out: MFC): > 1000 µg/mL; MFC [13]: > 1000 µg/mL
CCCOc1ccc(/C=N/n2c(-c3cccc(F)c3)n[nH]c2=S)cc1 [RO6, 5-(3-fluorofenylo)-4-[(4-propoxybenzylidene)amino]-2,4-dihydro-3H-1,2,4-triazole-3-thione]	–	–	–	–	–	–	–	–	–	–	–	–	189 to 192 °C	–	–	–	–	–	–	–	–
CCCCOc1ccc(C=Nn2c(-c3cccc(F)c3)n[nH]c2=S)cc1 [RO8, 4-[(4-butoxybenzylidene)amino]-5-(3-fluorophenyl)-2,4-dihydro-3H-1,2,4-triazole-3-thione]	> 100 µM	< 4.00	< 4.00	125 µg/mL (≈ 337 µM)	1000 µg/mL (≈ 2700 µM)	1000 µg/mL (≈ 2700 µM)	> 1000 µg/mL	250 µg/mL (≈ 675 µM)	250 µg/mL (≈ 675 µM)	> 37 µg/mL	> 37 µg/mL	> 37 µg/mL	183 to 185 °C	> 1000 µg/mL	> 1000 µg/mL	> 1000 µg/mL	> 1000 µg/mL	500 µg/mL (≈ 1350 µM)	500 µg/mL (≈ 1350 µM)	> 1000 µg/mL	MBC [1]: > 1000 µg/mL; MIC [4]: > 1000 µg/mL; MBC [6]: > 1000 µg/mL; MBC [7]: > 1000 µg/mL; MFC [11]: > 1000 µg/mL; MFC ([12]; ATCC10231, read-out: MFC): > 1000 µg/mL
Cc1cccc(C=Nn2c(-c3cccc(F)c3)n[nH]c2=S)c1 [RO9, 5-(3-fluorophenyl)-4-[(3-methylbenzylidene)amino]-2,4-dihydro-3H-1,2,4-triazole-3-thione]	> 100 µM	< 4.00	< 4.00	125 µg/mL (≈ 400 µM)	500 µg/mL (≈ 1600 µM)	–	> 1000 µg/mL	125 µg/mL (≈ 400 µM)	250 µg/mL (≈ 800 µM)	> 31.2 µg/mL	> 31.2 µg/mL	> 31.2 µg/mL	232 to 234 °C	> 1000 µg/mL	> 1000 µg/mL	> 1000 µg/mL	> 1000 µg/mL	> 1000 µg/mL	1000 µg/mL (≈ 3200 µM)	> 1000 µg/mL	MBC [1]: > 1000 µg/mL; MBC [2]: > 1000 µg/mL; MBC [6]: > 1000 µg/mL; MBC [7]: > 1000 µg/mL; MFC ([12]; ATCC10231, read-out: MFC): > 1000 µg/mL
